Laboratory results published in patent publication US20080027088A1, “Imidazole-Based Hmg-Coa Reductase Inhibitors” (Warner-Lambert Company, LLC, priority 2004, published 2008).

Key:
Assay type in all cases: in vivo
[1] = tested on: ApoE KO mice fed a Western diet; assay: Plasma total cholesterol and triglyceride, 12 weeks; conditions: 0.3 mg/kg/day
Procedure: Animal experiments—Male C57BI/6J and ApoE KO mice on C57BI/6J background were obtained from the Jackson Laboratory (Bar Harbor, Me.) or Taconic (Germantown, N.Y.) (Plaque formation in ApoE KO mice is lipid-driven (A. S. Plump et al., Cell. 1992;71 (2):343-53)). Myriocin was mixed with Western diet containing 0.21% cholesterol and 21% fat. 8-12-week-old mice received 0.3 mg myriocin/kg/day for 12 weeks (Table 1). 10-12 week-old ApoE KO mice (n=8) were pre-fed a western diet for 2 weeks and mice received various concentrations of myriocin for 4 weeks in diet admix. Control groups consisted of ApoE KO mice fed normal chow or Western diet without myriocin, and normal chow-fed C57BI/6J mice. Body weight and chow feeding was measured every week to examine the food consumption. […]
Plasma lipids and serum amyloid A measurement—Mice were sacrificed by CO2 inhalation and blood was collected through cardiac puncture. Plasma concentrations of total cholesterol and triglyceride were determined enzymatically on a Cobas Mira Plus auto-analyzer using Cholesterol R1 and Triglycerides Reagent methods, respectively (Roche Diagnostics, Indiana, USA). Colormetric changes were measured at 500 nm. […] Cholesterol distribution among lipoproteins was determined by in-line post column analysis (K. A. Kieft, T. M. Bocan and B. R. Krause, J. Lipid Res. 1991; 32:859-66). […]
FIG. 7. […] Colormetric changes were measured at 500 nm. […]

[2] = tested on: ApoE KO mice fed a Western diet; assay: Plasma lipoprotein cholesterol distribution by FPLC, 4 weeks; conditions: doses 0.1-1.0 mg/kg/day
Procedure: Animal experiments—Male C57BI/6J and ApoE KO mice on C57BI/6J background were obtained from the Jackson Laboratory (Bar Harbor, Me.) or Taconic (Germantown, N.Y.) (Plaque formation in ApoE KO mice is lipid-driven (A. S. Plump et al., Cell. 1992;71 (2):343-53)). Myriocin was mixed with Western diet containing 0.21% cholesterol and 21% fat. 8-12-week-old mice received 0.3 mg myriocin/kg/day for 12 weeks (Table 1). 10-12 week-old ApoE KO mice (n=8) were pre-fed a western diet for 2 weeks and mice received various concentrations of myriocin for 4 weeks in diet admix. Control groups consisted of ApoE KO mice fed normal chow or Western diet without myriocin, and normal chow-fed C57BI/6J mice. Body weight and chow feeding was measured every week to examine the food consumption. For the femoral artery cuff model, 8-10 week-old male ApoE KO mice were anethetized and the right femoral artery was dissected from its surroundings. A nonconstrictive polyethylene cuff (Portex, 0.40-mm inner diameter, 0.80-mm outer diameter, and 1.5-mm length) was placed looselyaround the right femoral artery.
Plasma lipids and serum amyloid A measurement—Mice were sacrificed by CO2 inhalation and blood was collected through cardiac puncture. Plasma concentrations of total cholesterol and triglyceride were determined enzymatically on a Cobas Mira Plus auto-analyzer using Cholesterol R1 and Triglycerides Reagent methods, respectively (Roche Diagnostics, Indiana, USA). Colormetric changes were measured at 500 nm. Lipoproteins were separated from mouse plasma by fast-protein liquid chromatography utilizing a Superose 6HR column. Cholesterol distribution among lipoproteins was determined by in-line post column analysis (K. A. Kieft, T. M. Bocan and B. R. Krause, J. Lipid Res. 1991; 32:859-66). Serum Amyloid A (SAA) protein in plasma was measured by ELISA according to the manufacturer's instructions (Biosource).
FIG. 2. […] Cholesterol distribution among lipoproteins was determined by in-line post column analysis (Kieft, K. A., T. M. A. Bocan, B. R. Krause, J. Lipid Res. 1991, 32: 859-866). […]

[3] = tested on: ApoE KO mice fed a Western diet; assay: Incorporation of T lymphocytes into lesion of aortic root; conditions: 12 weeks
Procedure: For histological analysis, the mice were perfused and fixed in Zinc-Tris fixative. Paraffin embedded sections were stained with Masson's Trichrome. Intimal macrophages were immunohistochemically stained using MAC-2 antibody (clone M3/38 from Cedarlane Laboratories Limited) counterstained with Verhoeff elastic stain. T-lymphocytes were immunohistochemically stained with rat CD3 antibody (clone CD3-12, Serotec). Lesion thickness and area occupied by macrophages were determined using Image Pro Plus software. FIG. 14. Incorporation of T lymphocytes into lesion of aortic root. Cross section of aortic root was stained by rat CD3 antibody and developed by diaminobenzidine (brown color) to detect incorporated T lymphocytes. Sections were counterstained with Harris hematoxylin (blue). T-lymphocyte incorporation was quantified by measuring number of intimal T lymphocytes in aortic root (FIG. 14). Values are mean±SEM (n=5; *P<0.05, Western diet vs standard chow; #P<0.05, Western diet plus myriocin vs standard chow). Bar represents 50 μm.

[4] = tested on: ApoE KO mice fed a Western diet; assay: Atherosclerotic lesion and macrophage area in aortic root and brachiocephalic artery, 12 weeks
Procedure: For histological analysis, the mice were perfused and fixed in Zinc-Tris fixative. Paraffin embedded sections were stained with Masson's Trichrome. Intimal macrophages were immunohistochemically stained using MAC-2 antibody (clone M3/38 from Cedarlane Laboratories Limited) counterstained with Verhoeff elastic stain. T-lymphocytes were immunohistochemically stained with rat CD3 antibody (clone CD3-12, Serotec). Lesion thickness and area occupied by macrophages were determined using Image Pro Plus software.
FIGS. 11 & 12. Formation of atherosclerotic lesions in aortic root and brachiocephalic artery. ApoE KO mice fed with Western-diet in the absence or presence of myriocin, ApoE KO mice and C57BI/6J mice fed with normal chow were sacrificed and fixed with Zinc-Tris. The cross-section of brachiocephalic artery was stained by Masson's Trichrome and MAC-2 antibody counterstained with Verhoeff elastic stain. Atherosclerotic lesion (black bars) and macrophage size (gray bars) in brachiocephalic artery and in aortic root were quantified by using Image Pro Plus. The values reported are mean±SEM (n=5, *P<0.01, WD vs WD plus myriocin; #P<0.01, normal vs WD plus myriocin). Bar represents 100 μm.

## CCCCCCC(=O)CCCCCC/C=C/C[C@@H](O)[C@H](O)[C@@](N)(CO)C(=O)O [myriocin]
[1]
  plasma TG lowered: 45%
  plasma cholesterol lowered: 41%
[2]
  HDL-cholesterol raised: 2.1 fold
  LDL-cholesterol lowered, at maximum: 63%
  VLDL-cholesterol lowered, at maximum: 83%
[3]
  accumulation of T cells in lesion of aortic root: not affected
[4]; 0.3 mg/kg
  decrease in lesion area, brachiocephalic artery: 76%
  decrease in macrophage area, brachiocephalic artery: 74%
  lesion area decreased, aortic root: 44%
  macrophage area decreased, aortic root: 31%
[4]; myriocin-treated, Western diet-fed ApoE KO mice
  necrotic core in lesions: did not develop necrotic core
